Columns and labels:
[1] = molecular target: T1, human Cereblon WT GST-tagged protein (Homo sapiens, UniProt Q96SW2); assay: CRBN-binding affinity, HTRF (CEREBLON BINDING kit); conditions: for inhibition at 0.5 µM: read-out: Inhibition Rate at 0.5 µM (%); for inhibition at 2 µM: read-out: Inhibition Rate at 2 µM (%)
T1 construct: purchased CISBIO 64BDCRBNPEH

[2] = molecular target: T2, IKZF1 (Homo sapiens, UniProt Q13422+Q96SW2); assay: Western blot, degradation of substrate protein in hPBMCs; assay type: cell-based; conditions: Western blot, 24 hours of compound treatment, compounds tested at 50 nM and 500 nM (concentration for the table not stated)
T2 construct: effects of the compounds of the present disclosure on the expression of target proteins in cells; endogenous in cells; host or cells: human PBMCs (Milecell Biotechnologies)
T2 sequence (Q13422 whole entry): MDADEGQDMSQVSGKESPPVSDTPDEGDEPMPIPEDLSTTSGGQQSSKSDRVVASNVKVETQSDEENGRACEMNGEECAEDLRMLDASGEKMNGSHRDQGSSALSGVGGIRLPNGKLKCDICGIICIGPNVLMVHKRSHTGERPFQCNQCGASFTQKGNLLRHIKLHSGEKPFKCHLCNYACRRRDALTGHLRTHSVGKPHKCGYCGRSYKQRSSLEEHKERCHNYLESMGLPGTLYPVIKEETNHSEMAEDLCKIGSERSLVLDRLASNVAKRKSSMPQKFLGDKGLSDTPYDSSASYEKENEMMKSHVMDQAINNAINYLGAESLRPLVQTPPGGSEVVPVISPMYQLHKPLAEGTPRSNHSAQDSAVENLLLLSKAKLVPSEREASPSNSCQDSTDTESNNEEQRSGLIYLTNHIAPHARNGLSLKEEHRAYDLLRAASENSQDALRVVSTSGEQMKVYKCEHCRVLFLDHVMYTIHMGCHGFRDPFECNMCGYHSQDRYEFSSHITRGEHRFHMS
T2 sequence (Q96SW2 whole entry): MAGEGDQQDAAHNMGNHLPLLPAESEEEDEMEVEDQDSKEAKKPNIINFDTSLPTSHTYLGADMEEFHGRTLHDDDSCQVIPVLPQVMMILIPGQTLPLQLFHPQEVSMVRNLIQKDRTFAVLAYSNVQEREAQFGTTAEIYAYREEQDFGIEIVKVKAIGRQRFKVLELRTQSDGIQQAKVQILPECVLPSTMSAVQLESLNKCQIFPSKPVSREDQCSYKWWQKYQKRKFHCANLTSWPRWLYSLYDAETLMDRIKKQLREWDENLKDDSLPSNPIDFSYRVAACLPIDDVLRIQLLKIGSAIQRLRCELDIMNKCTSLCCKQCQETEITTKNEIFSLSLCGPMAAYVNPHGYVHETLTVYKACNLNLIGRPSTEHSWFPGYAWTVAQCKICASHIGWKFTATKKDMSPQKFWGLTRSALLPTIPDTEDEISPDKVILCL
T2 sequence (Q16531 whole entry partner): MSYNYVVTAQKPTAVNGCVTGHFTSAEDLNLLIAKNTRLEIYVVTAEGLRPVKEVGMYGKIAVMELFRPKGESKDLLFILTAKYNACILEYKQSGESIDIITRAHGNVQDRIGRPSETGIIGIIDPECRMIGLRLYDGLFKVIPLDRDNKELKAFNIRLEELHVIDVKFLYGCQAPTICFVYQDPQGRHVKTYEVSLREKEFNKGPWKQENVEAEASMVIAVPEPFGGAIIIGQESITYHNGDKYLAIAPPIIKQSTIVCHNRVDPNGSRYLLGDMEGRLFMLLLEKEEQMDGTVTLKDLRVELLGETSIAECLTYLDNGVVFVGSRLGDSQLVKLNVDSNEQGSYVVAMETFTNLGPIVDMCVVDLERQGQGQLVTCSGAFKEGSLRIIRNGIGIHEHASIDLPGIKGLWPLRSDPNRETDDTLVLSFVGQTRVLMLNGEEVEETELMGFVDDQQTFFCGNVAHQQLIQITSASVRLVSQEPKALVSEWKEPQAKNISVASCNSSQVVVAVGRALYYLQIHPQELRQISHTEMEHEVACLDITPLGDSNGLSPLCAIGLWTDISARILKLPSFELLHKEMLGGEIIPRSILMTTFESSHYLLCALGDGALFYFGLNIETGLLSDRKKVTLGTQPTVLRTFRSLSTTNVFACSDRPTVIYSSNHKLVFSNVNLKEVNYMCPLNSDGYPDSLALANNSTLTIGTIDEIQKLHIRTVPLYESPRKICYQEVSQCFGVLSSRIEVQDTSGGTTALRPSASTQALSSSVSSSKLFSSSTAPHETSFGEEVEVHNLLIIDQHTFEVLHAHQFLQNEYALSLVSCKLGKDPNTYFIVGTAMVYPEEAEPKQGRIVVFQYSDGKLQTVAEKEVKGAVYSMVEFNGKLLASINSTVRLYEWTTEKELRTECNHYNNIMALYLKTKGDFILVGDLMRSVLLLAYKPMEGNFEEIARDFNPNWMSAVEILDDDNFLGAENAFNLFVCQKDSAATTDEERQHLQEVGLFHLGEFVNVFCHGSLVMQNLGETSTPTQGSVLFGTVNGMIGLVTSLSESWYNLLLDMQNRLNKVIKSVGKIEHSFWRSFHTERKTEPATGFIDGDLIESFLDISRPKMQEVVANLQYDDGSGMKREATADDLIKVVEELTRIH

[3] = molecular target: T3, IKZF3 (Homo sapiens, UniProt Q96SW2+Q9UKT9); assay: as above; assay type: cell-based; conditions: Western blot, 24 hours of compound treatment, compounds tested at 50 nM and 500 nM (concentration for the table not stated)
T3 construct: effects of the compounds of the present disclosure on the expression of target proteins in cells; endogenous in cells; host or cells: human PBMCs (Milecell Biotechnologies)
T3 sequence (Q9UKT9 whole entry): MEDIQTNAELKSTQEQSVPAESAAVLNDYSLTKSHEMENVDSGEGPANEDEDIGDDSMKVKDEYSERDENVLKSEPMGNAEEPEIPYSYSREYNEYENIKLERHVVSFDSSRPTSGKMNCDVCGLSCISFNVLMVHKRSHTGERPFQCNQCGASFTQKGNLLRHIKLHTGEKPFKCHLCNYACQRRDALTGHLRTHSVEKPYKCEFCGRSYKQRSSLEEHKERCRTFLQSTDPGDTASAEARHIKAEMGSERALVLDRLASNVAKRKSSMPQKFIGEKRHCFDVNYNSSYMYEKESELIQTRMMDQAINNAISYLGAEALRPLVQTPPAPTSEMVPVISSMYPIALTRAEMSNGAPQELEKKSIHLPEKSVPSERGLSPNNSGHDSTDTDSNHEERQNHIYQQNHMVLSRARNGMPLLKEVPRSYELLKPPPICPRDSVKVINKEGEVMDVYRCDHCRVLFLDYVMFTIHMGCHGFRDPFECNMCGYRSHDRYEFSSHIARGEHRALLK
T3 sequence (Q96SW2 whole entry): as the sequence (Q96SW2 whole entry) above
T3 sequence (Q16531 whole entry partner): as the sequence (Q16531 whole entry partner) above

[4] = molecular target: T4, CK1α (Homo sapiens, UniProt P48729+Q96SW2); assay: as above; assay type: cell-based; conditions: Western blot, 24 hours of compound treatment, compounds tested at 50 nM and 500 nM (concentration for the table not stated)
T4 construct: effects of the compounds of the present disclosure on the expression of target proteins in cells; endogenous in cells; host or cells: human PBMCs (Milecell Biotechnologies)
T4 sequence (P48729 whole entry): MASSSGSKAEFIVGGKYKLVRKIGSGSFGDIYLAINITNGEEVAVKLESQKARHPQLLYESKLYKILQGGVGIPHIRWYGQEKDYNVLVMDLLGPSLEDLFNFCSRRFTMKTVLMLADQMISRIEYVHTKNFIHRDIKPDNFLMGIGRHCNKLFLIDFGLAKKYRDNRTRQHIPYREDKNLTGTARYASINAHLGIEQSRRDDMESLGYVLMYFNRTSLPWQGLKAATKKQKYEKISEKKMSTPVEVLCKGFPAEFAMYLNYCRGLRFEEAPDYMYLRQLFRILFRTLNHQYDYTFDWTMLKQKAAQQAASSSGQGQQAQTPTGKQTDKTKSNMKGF
T4 sequence (Q96SW2 whole entry): as the sequence (Q96SW2 whole entry) above
T4 sequence (Q16531 whole entry partner): as the sequence (Q16531 whole entry partner) above

[5] = molecular target: T5, WEE1 (Homo sapiens, UniProt P30291+Q96SW2); assay: as above; assay type: cell-based; conditions: Western blot, 24 hours of compound treatment, compounds tested at 50 nM and 500 nM (concentration for the table not stated)
T5 construct: effects of the compounds of the present disclosure on the expression of target proteins in cells; endogenous in cells; host or cells: human PBMCs (Milecell Biotechnologies)
T5 sequence (P30291 whole entry): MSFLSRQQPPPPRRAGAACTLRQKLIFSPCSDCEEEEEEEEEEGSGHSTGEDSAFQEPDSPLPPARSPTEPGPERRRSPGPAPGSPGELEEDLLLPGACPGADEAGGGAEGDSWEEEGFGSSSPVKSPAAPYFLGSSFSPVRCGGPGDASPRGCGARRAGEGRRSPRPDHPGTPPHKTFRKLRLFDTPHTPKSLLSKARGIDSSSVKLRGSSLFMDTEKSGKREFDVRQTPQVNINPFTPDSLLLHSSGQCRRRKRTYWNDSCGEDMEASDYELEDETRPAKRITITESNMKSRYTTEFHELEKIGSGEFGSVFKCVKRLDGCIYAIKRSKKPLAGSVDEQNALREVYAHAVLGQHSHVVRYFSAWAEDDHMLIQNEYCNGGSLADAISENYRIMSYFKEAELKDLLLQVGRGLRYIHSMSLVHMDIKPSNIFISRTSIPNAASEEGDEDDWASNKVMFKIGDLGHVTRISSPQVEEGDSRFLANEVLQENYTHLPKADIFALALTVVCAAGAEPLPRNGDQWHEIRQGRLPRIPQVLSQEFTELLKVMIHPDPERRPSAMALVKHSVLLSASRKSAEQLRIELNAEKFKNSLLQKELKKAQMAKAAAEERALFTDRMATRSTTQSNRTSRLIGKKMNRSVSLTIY
T5 sequence (Q96SW2 whole entry): as the sequence (Q96SW2 whole entry) above
T5 sequence (Q16531 whole entry partner): as the sequence (Q16531 whole entry partner) above

[6] = molecular target: T6, IKZF2 (Homo sapiens, UniProt Q96SW2+Q9UKS7); assay: as above; assay type: cell-based; conditions: Western blot, 24 hours of compound treatment, compounds tested at 50 nM and 500 nM (concentration for the table not stated)
T6 construct: effects of the compounds of the present disclosure on the expression of target proteins in cells; endogenous in cells; host or cells: human PBMCs (Milecell Biotechnologies)
T6 sequence (Q9UKS7 whole entry): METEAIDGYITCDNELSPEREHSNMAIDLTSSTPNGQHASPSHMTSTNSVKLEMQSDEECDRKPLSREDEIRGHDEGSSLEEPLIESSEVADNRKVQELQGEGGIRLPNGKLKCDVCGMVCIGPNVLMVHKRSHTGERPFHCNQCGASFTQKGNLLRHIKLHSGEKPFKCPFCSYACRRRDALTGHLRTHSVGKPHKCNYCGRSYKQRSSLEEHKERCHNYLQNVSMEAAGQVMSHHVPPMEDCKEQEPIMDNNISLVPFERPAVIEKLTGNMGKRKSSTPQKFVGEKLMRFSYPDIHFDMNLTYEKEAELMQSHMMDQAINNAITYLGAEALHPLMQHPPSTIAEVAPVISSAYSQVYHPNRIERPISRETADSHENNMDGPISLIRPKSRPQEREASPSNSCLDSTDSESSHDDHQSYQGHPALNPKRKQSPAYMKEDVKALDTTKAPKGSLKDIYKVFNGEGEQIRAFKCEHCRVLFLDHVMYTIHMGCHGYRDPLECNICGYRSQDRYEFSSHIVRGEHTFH
T6 sequence (Q96SW2 whole entry): as the sequence (Q96SW2 whole entry) above
T6 sequence (Q16531 whole entry partner): as the sequence (Q16531 whole entry partner) above

[7] = test system: GSPT1; assay: as above; assay type: cell-based, Human; conditions: Western blot, 24 hours of compound treatment, compounds tested at 50 nM and 500 nM (concentration for the table not stated)

T1 sequence (Q96SW2 whole entry): as the sequence (Q96SW2 whole entry) above

| inhibition at 0.5 µM [1] [%] | inhibition at 2 µM [1] [%] | Compound | IKZF 1 substrate protein remaining % [2] | IKZF3 substrate protein remaining % [3] | CK1α substrate protein remaining % [4] | Wee1 substrate protein remaining % [5] | IKZF2 substrate protein remaining % [6] | GSPT1 substrate protein remaining % [7] |
| --- | --- | --- | --- | --- | --- | --- | --- | --- |
| 60 to 80 | 80 to 100 | O=C1CCC(N2Cc3c(CN4CCN(c5ccnc(Br)c5F)CC4)cccc3C2=S)C(=O)N1 (stereo not drawn) [GT-08733, 3-(4-((4-(2-bromo-3-fluoropyridin-4-yl)piperazin-1-yl)methyl)-1-thioxoisoindolin-2-yl)piperidine-2,6-dione] | B (80%< substrate protein remaining %≤ 100%) | B (80%< substrate protein remaining %≤ 100%) | B (80%< substrate protein remaining %≤ 100%) | A (0% ≤ substrate protein remaining % ≤ 80%) | B (80%< substrate protein remaining %≤ 100%) | A (0% ≤ substrate protein remaining % ≤ 80%) |
| 60 to 80 | 80 to 100 | O=C1CCC(N2Cc3c(CN4CCN(c5ccnc(Cl)c5Br)CC4)cccc3C2=S)C(=O)N1 (stereo not drawn) [GT-08734, 3-(4-((4-(3-bromo-2-chloropyridin-4-yl)piperazin-1-yl)methyl)-1-thioxoisoindolin-2-yl)piperidine-2,6-dione] | B (80%< substrate protein remaining %≤ 100%) | B (80%< substrate protein remaining %≤ 100%) | B (80%< substrate protein remaining %≤ 100%) | A (0% ≤ substrate protein remaining % ≤ 80%) | B (80%< substrate protein remaining %≤ 100%) | A (0% ≤ substrate protein remaining % ≤ 80%) |
| 60 to 80 | 80 to 100 | O=C1CCC(N2Cc3c(CN4CCN(c5ccnc(Cl)c5Cl)CC4)cccc3C2=S)C(=O)N1 (stereo not drawn) [GT-08735, 3-(4-((4-(2,3-dichloropyridin-4-yl)piperazin-1-yl)methyl)-1-thioxoisoindolin-2-yl)piperidine-2,6-dione] | B (80%< substrate protein remaining %≤ 100%) | B (80%< substrate protein remaining %≤ 100%) | B (80%< substrate protein remaining %≤ 100%) | A (0% ≤ substrate protein remaining % ≤ 80%) | B (80%< substrate protein remaining %≤ 100%) | B (80%< substrate protein remaining %≤ 100%) |
| 60 to 80 | 80 to 100 | O=C1CCC(N2Cc3c(CN4CCN(c5c(Cl)cncc5Br)CC4)cccc3C2=S)C(=O)N1 (stereo not drawn) [GT-08801, 3-(4-((4-(3-bromo-5-chloropyridin-4-yl)piperazin-1-yl)methyl)-1-thioxoisoindolin-2-yl)piperidine-2,6-dione] | B (80%< substrate protein remaining %≤ 100%) | B (80%< substrate protein remaining %≤ 100%) | B (80%< substrate protein remaining %≤ 100%) | A (0% ≤ substrate protein remaining % ≤ 80%) | B (80%< substrate protein remaining %≤ 100%) | B (80%< substrate protein remaining %≤ 100%) |
| 53 to 60 | 80 to 100 | O=C1CCC(N2Cc3c(CN4CCN(c5c(F)cncc5Cl)CC4)cccc3C2=S)C(=O)N1 (stereo not drawn) [GT-08802, 3-(4-((4-(3-chloro-5-fluoropyridin-4-yl)piperazin-1-yl)methyl)-1-thioxoisoindolin-2-yl)piperidine-2,6-dione] | B (80%< substrate protein remaining %≤ 100%) | B (80%< substrate protein remaining %≤ 100%) | B (80%< substrate protein remaining %≤ 100%) | A (0% ≤ substrate protein remaining % ≤ 80%) | B (80%< substrate protein remaining %≤ 100%) | B (80%< substrate protein remaining %≤ 100%) |

More lines, now with the values behind:

| Compound | inhibition at 0.5 µM [1] [%] | inhibition at 2 µM [1] [%] | IKZF 1 substrate protein remaining % [2] | IKZF3 substrate protein remaining % [3] | CK1α substrate protein remaining % [4] | Wee1 substrate protein remaining % [5] | IKZF2 substrate protein remaining % [6] | GSPT1 substrate protein remaining % [7] |
| --- | --- | --- | --- | --- | --- | --- | --- | --- |
| O=C1CCC(N2Cc3c(CN4CCN(c5cncc(Cl)c5Cl)CC4)cccc3C2=S)C(=O)N1 (stereo not drawn) [GT-08724, 3-(4-((4-(4,5-dichloropyridin-3-yl)piperazin-1-yl)methyl)-1-thioxoisoindolin-2-yl)piperidine-2,6-dione] | 60 to 80 | 80 to 100 | B (80%< substrate protein remaining %≤ 100%) | B (80%< substrate protein remaining %≤ 100%) | B (80%< substrate protein remaining %≤ 100%) | A (0% ≤ substrate protein remaining % ≤ 80%) | B (80%< substrate protein remaining %≤ 100%) | B (80%< substrate protein remaining %≤ 100%) |
| O=C1CCC(N2Cc3c(CN4CCN(c5ccncc5)CC4)cccc3C2=S)C(=O)N1 (stereo not drawn) [GT-08726, 3-(4-((4-(pyridin-4-yl)piperazin-1-yl)methyl)-1-thioxoisoindolin-2-yl)piperidine-2,6-dione] | 60 to 80 | 80 to 100 | B (80%< substrate protein remaining %≤ 100%) | A (0% ≤ substrate protein remaining % ≤ 80%) | B (80%< substrate protein remaining %≤ 100%) | A (0% ≤ substrate protein remaining % ≤ 80%) | A (0% ≤ substrate protein remaining % ≤ 80%) | A (0% ≤ substrate protein remaining % ≤ 80%) |
| O=C1CCC(N2Cc3c(CN4CCN(c5nccc(F)c5F)CC4)cccc3C2=S)C(=O)N1 (stereo not drawn) [GT-08728, 3-(4-((4-(3,4-difluoropyridin-2-yl)piperazin-1-yl)methyl)-1-thioxoisoindolin-2-yl)piperidine-2,6-dione] | 53 to 60 | 80 to 100 | B (80%< substrate protein remaining %≤ 100%) | B (80%< substrate protein remaining %≤ 100%) | B (80%< substrate protein remaining %≤ 100%) | A (0% ≤ substrate protein remaining % ≤ 80%) | B (80%< substrate protein remaining %≤ 100%) | B (80%< substrate protein remaining %≤ 100%) |
| O=C1CCC(N2Cc3c(CN4CCN(c5ccncc5Br)CC4)cccc3C2=S)C(=O)N1 (stereo not drawn) [GT-08729, 3-(4-((4-(3-bromopyridin-4-yl)piperazin-1-yl)methyl)-1-thioxoisoindolin-2-yl)piperidine-2,6-dione] | 60 to 80 | 80 to 100 | B (80%< substrate protein remaining %≤ 100%) | B (80%< substrate protein remaining %≤ 100%) | B (80%< substrate protein remaining %≤ 100%) | A (0% ≤ substrate protein remaining % ≤ 80%) | B (80%< substrate protein remaining %≤ 100%) | B (80%< substrate protein remaining %≤ 100%) |
| O=C1CCC(N2Cc3c(CN4CCN(c5ccncc5F)CC4)cccc3C2=S)C(=O)N1 (stereo not drawn) [GT-08730, 3-(4-((4-(3-fluoropyridin-4-yl)piperazin-1-yl)methyl)-1-thioxoisoindolin-2-yl)piperidine-2,6-dione] | 60 to 80 | 80 to 100 | B (80%< substrate protein remaining %≤ 100%) | B (80%< substrate protein remaining %≤ 100%) | B (80%< substrate protein remaining %≤ 100%) | A (0% ≤ substrate protein remaining % ≤ 80%) | B (80%< substrate protein remaining %≤ 100%) | B (80%< substrate protein remaining %≤ 100%) |
| O=C1CCC(N2Cc3c(CN4CCN(c5ccncc5Cl)CC4)cccc3C2=S)C(=O)N1 (stereo not drawn) [GT-08731, 3-(4-((4-(3-chloropyridin-4-yl)piperazin-1-yl)methyl)-1-thioxoisoindolin-2-yl)piperidine-2,6-dione] | 60 to 80 | 80 to 100 | B (80%< substrate protein remaining %≤ 100%) | B (80%< substrate protein remaining %≤ 100%) | B (80%< substrate protein remaining %≤ 100%) | A (0% ≤ substrate protein remaining % ≤ 80%) | B (80%< substrate protein remaining %≤ 100%) | A (0% ≤ substrate protein remaining % ≤ 80%) |
| O=C1CCC(N2Cc3c(CN4CCN(c5ccnc(Cl)c5F)CC4)cccc3C2=S)C(=O)N1 (stereo not drawn) [GT-08732, 3-(4-((4-(2-chloro-3-fluoropyridin-4-yl)piperazin-1-yl)methyl)-1-thioxoisoindolin-2-yl)piperidine-2,6-dione] | 60 to 80 | 80 to 100 | B (80%< substrate protein remaining %≤ 100%) | B (80%< substrate protein remaining %≤ 100%) | B (80%< substrate protein remaining %≤ 100%) | A (0% ≤ substrate protein remaining % ≤ 80%) | B (80%< substrate protein remaining %≤ 100%) | B (80%< substrate protein remaining %≤ 100%) |
